Reference: ChEMBL document CHEMBL3244164, “Synthesis and analgesic activity of 1,3-dihydro-3-(substituted phenyl)imidazo[4,5-b]pyridin-2-ones and 3-(substituted phenyl)-1,2,3-triazolo[4,5-b]pyridines” (J Med Chem, 1978)
The source made the active and inactive calls.

Columns and labels:
Rattus norvegicus [1] = experiment: Analgesic activity in Sprague-Dawley rat normal foot assessed as response threshold at 16 to 32 mg/kg, po; assay type: functional; conditions: dose mg/kg 16-32
Rattus norvegicus [2] = experiment: Analgesic activity in Sprague-Dawley rat brewer's yeast treated foot assessed as response threshold at 16 to 32 mg/kg, po; assay type: functional; conditions: dose mg/kg 16-32
Rattus norvegicus [3] = experiment: Analgesic activity in Sprague-Dawley rat brewer's yeast treated foot assessed as response threshold at 8 to 16 mg/kg, po; assay type: functional; conditions: dose mg/kg 8-16
Rattus norvegicus [4] = experiment: Analgesic activity in Sprague-Dawley rat assessed as increase in mean reaction time at 60 mg/kg, po after 1 hr relative to control; assay type: functional
Rattus norvegicus [5] = experiment: Analgesic activity in Sprague-Dawley rat assessed as increase in mean reaction time at 90 mg/kg, po after 5 hrs relative to control; assay type: functional
Rattus norvegicus [6] = experiment: Analgesic activity in Sprague-Dawley rat assessed as increase in mean reaction time at 120 mg/kg, po after 3 hrs relative to control; assay type: functional
Rattus norvegicus [7] = experiment: Analgesic activity in Sprague-Dawley rat assessed as increase in mean reaction time at 30 mg/kg, po after 5 hrs relative to control; assay type: functional
Rattus norvegicus [8] = experiment: Analgesic activity in Sprague-Dawley rat assessed as increase in mean reaction time at 90 mg/kg, po after 2 hrs relative to control; assay type: functional
Rattus norvegicus [9] = experiment: Analgesic activity in Sprague-Dawley rat assessed as increase in mean reaction time at 90 mg/kg, po after 4 hrs relative to control; assay type: functional
Rattus norvegicus [10] = experiment: Analgesic activity in Sprague-Dawley rat assessed as increase in mean reaction time at 90 mg/kg, po after 1 hr relative to control; assay type: functional
Rattus norvegicus [11] = experiment: Toxicity in Sprague-Dawley rat assessed as sedation at 90 mg/kg, po after 1 hr relative to control; assay type: organism-based; design: dose 90 mg/kg, route oral; conditions: in vivo
Rattus norvegicus [12] = experiment: Analgesic activity in Sprague-Dawley rat normal foot assessed as response threshold at 32 mg/kg, po; assay type: functional
Mus musculus [13] = experiment: Analgesic activity in naloxone treated mouse assessed as withdrawal latency at 12.5 to 75 mg/kg, po; assay type: functional, organism-based
Rattus norvegicus [14] = experiment: Analgesic activity in Sprague-Dawley rat assessed as increase in mean reaction time at 60 mg/kg, po after 2 hrs relative to control; assay type: functional
Rattus norvegicus [15] = experiment: Analgesic activity in Sprague-Dawley rat assessed as increase in mean reaction time at 30 mg/kg, po after 3 hrs relative to control; assay type: functional
Mus musculus [16] = experiment: Analgesic activity in mouse assessed as withdrawal latency at 12.5 to 75 mg/kg, po by Haffner tail clamp method; assay type: functional, organism-based
Rattus norvegicus [17] = experiment: Analgesic activity in Sprague-Dawley rat assessed as increase in mean reaction time at 120 mg/kg, po after 4 hrs relative to control; assay type: functional
Rattus norvegicus [18] = experiment: Analgesic activity in Sprague-Dawley rat assessed as increase in mean reaction time at 30 mg/kg, po after 1 hr relative to control; assay type: functional
Rattus norvegicus [19] = experiment: Analgesic activity in Sprague-Dawley rat assessed as increase in mean reaction time at 60 mg/kg, po after 3 hrs relative to control; assay type: functional
Rattus norvegicus [20] = experiment: Analgesic activity in Sprague-Dawley rat assessed as increase in mean reaction time at 120 mg/kg, po after 2 hrs relative to control; assay type: functional
Rattus norvegicus [21] = experiment: Analgesic activity in Sprague-Dawley rat assessed as increase in mean reaction time at 60 mg/kg, po after 4 hrs relative to control; assay type: functional
Rattus norvegicus [22] = experiment: Toxicity in Sprague-Dawley rat assessed as sedation at 90 mg/kg, po after 3 hrs relative to control; assay type: organism-based; design: dose 90 mg/kg, route oral; conditions: in vivo
Rattus norvegicus [23] = experiment: Toxicity in Sprague-Dawley rat assessed as sedation at 90 mg/kg, po after 2 hrs relative to control; assay type: organism-based; design: dose 90 mg/kg, route oral; conditions: in vivo
Rattus norvegicus [24] = experiment: Analgesic activity in Sprague-Dawley rat assessed as increase in mean reaction time at 60 mg/kg, po after 5 hrs relative to control; assay type: functional
Rattus norvegicus [25] = experiment: Analgesic activity in Sprague-Dawley rat assessed as increase in mean reaction time at 30 mg/kg, po after 2 hrs relative to control; assay type: functional
Rattus norvegicus [26] = experiment: Toxicity in Sprague-Dawley rat assessed as sedation at 90 mg/kg, po after 4 hrs relative to control; assay type: organism-based; design: dose 90 mg/kg, route oral; conditions: in vivo
Rattus norvegicus [27] = experiment: Analgesic activity in Sprague-Dawley rat assessed as increase in mean reaction time at 120 mg/kg, po after 1 hr relative to control; assay type: functional
Rattus norvegicus [28] = experiment: Analgesic activity in Sprague-Dawley rat assessed as increase in mean reaction time at 90 mg/kg, po after 3 hrs relative to control; assay type: functional
Rattus norvegicus [29] = experiment: Analgesic activity in Sprague-Dawley rat assessed as increase in mean reaction time at 30 mg/kg, po after 4 hrs relative to control; assay type: functional
Rattus norvegicus [30] = experiment: Toxicity in Sprague-Dawley rat assessed as sedation at 90 mg/kg, po after 5 hrs relative to control; assay type: organism-based; design: dose 90 mg/kg, route oral; conditions: in vivo
Rattus norvegicus [31] = experiment: Analgesic activity in Sprague-Dawley rat assessed as increase in mean reaction time at 120 mg/kg, po after 5 hrs relative to control; assay type: functional
Rattus norvegicus [32] = experiment: Antiinflammatory activity in Sprague-Dawley rat assessed as inhibition of carrageenan-induced paw edema at 30 mg/kg, po; assay type: functional
Rattus norvegicus [33] = experiment: Antiarthritic activity in Lewis rat assessed as inhibition of adjuvant-induced paw swelling at 50 mg/kg, po qd for 13 days measured on day 14; assay type: functional

**Q.** Which Activity (Rattus norvegicus [1]) does the source give for CC(C)(C)n1c(=O)n(-c2ccc3c(c2)OCO3)c2ncccc21 here?
**A.** >40 mm

**Q.** What about the Activity (Rattus norvegicus [2]) of the same compound?
**A.** >25 mm

**Q.** How did the Activity (Rattus norvegicus [1]) turn out when Fc1ccc(-n2nnc3cccnc32)c(F)c1 was run?
**A.** >40 mm

**Q.** What about the Activity (Rattus norvegicus [3]) of the same compound?
**A.** >25 mm

**Q.** With CCC(=O)O[C@](Cc1ccccc1)(c1ccccc1)[C@H](C)CN(C)C [PROPOXYPHENE] as the compound, how does the Time (Rattus norvegicus [4]) read?
**A.** -3 s

**Q.** And the Time (Rattus norvegicus [5])?
**A.** 10.5 s

**Q.** And the Time (Rattus norvegicus [6])?
**A.** 24.5 s

**Q.** What about the Time (Rattus norvegicus [7]) of the same compound?
**A.** 0.1 s

**Q.** What about the Time (Rattus norvegicus [8]) of the same compound?
**A.** 42 s

**Q.** What about the Time (Rattus norvegicus [9]) of the same compound?
**A.** 36.4 s

**Q.** What about the Time (Rattus norvegicus [10]) of the same compound?
**A.** 40.6 s

**Q.** And the Activity (Rattus norvegicus [11])?
**A.** Toxic

**Q.** And the Activity (Rattus norvegicus [12])?
**A.** 40 mm

**Q.** And the Activity (Mus musculus [13])?
**A.** inactive

**Q.** And the Time (Rattus norvegicus [14])?
**A.** -0.8 s

**Q.** And the Time (Rattus norvegicus [15])?
**A.** -4.4 s

**Q.** What about the Activity (Mus musculus [16]) of the same compound?
**A.** Active

**Q.** And the Time (Rattus norvegicus [17])?
**A.** 15 s

**Q.** What about the Time (Rattus norvegicus [18]) of the same compound?
**A.** -3.2 s

**Q.** What about the Time (Rattus norvegicus [19]) of the same compound?
**A.** -2.4 s

**Q.** And the Time (Rattus norvegicus [20])?
**A.** 30 s

**Q.** What about the Time (Rattus norvegicus [21]) of the same compound?
**A.** -0.8 s

**Q.** And the Activity (Rattus norvegicus [22])?
**A.** Toxic

**Q.** And the Activity (Rattus norvegicus [23])?
**A.** Toxic

**Q.** What about the Time (Rattus norvegicus [24]) of the same compound?
**A.** -1.1 s

**Q.** And the Time (Rattus norvegicus [25])?
**A.** -2.6 s

**Q.** And the Activity (Rattus norvegicus [26])?
**A.** Toxic

**Q.** What about the Activity (Rattus norvegicus [2]) of the same compound?
**A.** >25 mm

**Q.** What about the Time (Rattus norvegicus [27]) of the same compound?
**A.** 41.9 s

**Q.** What about the Time (Rattus norvegicus [28]) of the same compound?
**A.** 40.7 s

**Q.** And the Time (Rattus norvegicus [29])?
**A.** -0.8 s

**Q.** What about the Activity (Rattus norvegicus [30]) of the same compound?
**A.** Toxic

**Q.** What about the Time (Rattus norvegicus [31]) of the same compound?
**A.** 3.6 s

**Q.** And the inhibition in vivo at 30 mg/kg (Rattus norvegicus [32])?
**A.** 23%

**Q.** What about the inhibition in vivo at 50 mg/kg (Rattus norvegicus [33]) of the same compound?
**A.** 56.2%

**Q.** Which Activity (Rattus norvegicus [1]) does the source give for O=c1n(CCO)c2cccnc2n1-c1ccc2c(c1)OCO2 here?
**A.** >40 mm

**Q.** What about the Activity (Rattus norvegicus [3]) of the same compound?
**A.** >25 mm
